Results: US4956294A, “Culture of Streptoverticillium synroense for producing an antibacterial” (Merck & Co., Inc., priority 1989, dated 1990)
Values after ≈ are worked out from the molar mass of the structure shown. “Also recorded” adds a separate entry of the source.

Key:
[1] = tested on: C. perfringens 3508; assay: microbe, parasite or virus in culture; assay type: cell-based; conditions: Clostridium perfringens, 3508, 48 h
[2] = tested on: Staph. aureus 2865; assay: Agar dilution, antagonist-free medium
[3] = tested on: C. perfringens 3512; assay: microbe, parasite or virus in culture; assay type: cell-based; conditions: Clostridium perfringens, 3512, 48 h
[4] = tested on: Pasteurella; assay: Combined therapy with erythromycin in infected mice; conditions: L-654,040 combined with erythromycin, Pasteurella infection
[5] = tested on: B. thetalotamicron Clind^r, NCCLS control strain 4420; assay: Anaerobic agar dilution, Wilkens-Chalgren agar; assay type: cell-based; conditions: 48 h
[6] = tested on: C. perfringens 3510; assay: microbe, parasite or virus in culture; assay type: cell-based; conditions: Clostridium perfringens, 3510, 48 h
[7] = tested on: Ent. cloacae P99+ 2646; assay: Agar dilution, trypticase soy agar; conditions: Enterobacter cloacae, 20 h
[8] = tested on: E. coli TEM 2+ DC2 4352; assay: Agar dilution, trypticase soy agar; conditions: Escherichia coli, 20 h
[9] = tested on: Actinomyces naeslundii 4053; assay: Anaerobic agar dilution, Wilkens-Chalgren agar; assay type: cell-based; conditions: Actinomyces naeslundii, 4053, 48 h
[10] = tested on: Proteus vulgaris 1012; assay: Inhibition zone, agar plate; assay type: cell-based
[11] = tested on: Ser. marcescens 2840; assay: Agar dilution, antagonist-free medium; conditions: Serratia marcescens, 2840, 20 h
[12] = tested on: Bacteroides fragilis Met^r . Pen^r 4324; assay: Anaerobic agar dilution, Wilkens-Chalgren agar; assay type: cell-based; conditions: 48 h
[13] = tested on: Staphylococcus aureus 108 (6538P); assay: Inhibition zone, agar plate; assay type: cell-based; conditions: 15λ, read-out: Inhibition Zone Diameter
[14] = tested on: B. asaccharolyticus 4271; assay: Anaerobic agar dilution, Wilkens-Chalgren agar; assay type: cell-based; conditions: Porphyromonas asaccharolytica, 4271, 48 h
[15] = tested on: Propionibacterium acnes 2249; assay: Anaerobic agar dilution, Wilkens-Chalgren agar; assay type: cell-based; conditions: Cutibacterium acnes, 2249, 48 h
[16] = tested on: B. fragilis NCCLS control strain 4419; assay: Anaerobic agar dilution, Wilkens-Chalgren agar; assay type: cell-based; conditions: Bacteroides fragilis, 48 h
[17] = tested on: Eubacterium limosum 3344; assay: Anaerobic agar dilution, Wilkens-Chalgren agar; assay type: cell-based; conditions: inoculum 10^6 cfu/spot, 35° C., 48 hours
Protocol: (a) Wilkens-Chalgren agar was used instead of antagonist-free medium (Roche);
(b) The inoculum/spot was about 10^6 instead of about 10^4 ;
(c) The incubation period was for 48 hours, not 24 hours; and
(d) Incubations were performed under anaerobic conditions.

[18] = tested on: Sal. typhimurium 3860; assay: Agar dilution, trypticase soy agar; conditions: Salmonella enterica, 20 h
[19] = tested on: E. coli DC2 4353; assay: Agar dilution, antagonist-free medium
[20] = tested on: Corynebacterium pseudodiph. 261 (9742); assay: Inhibition zone, agar plate; assay type: cell-based; conditions: read-out: Inhibition Zone Diameter
[21] = tested on: C. ramosum 4272; assay: Anaerobic agar dilution, Wilkens-Chalgren agar; assay type: cell-based; conditions: Thomasclavelia ramosa, 4272, 48 h
[22] = tested on: Ps. aeruginosa RPL11+ 3350; assay: Agar dilution, trypticase soy agar; conditions: Pseudomonas aeruginosa, 20 h
[23] = tested on: C. perfringens 3513; assay: microbe, parasite or virus in culture; assay type: cell-based; conditions: Clostridium perfringens, 3513, 48 h
[24] = tested on: C. perfringens 3509; assay: microbe, parasite or virus in culture; assay type: cell-based; conditions: Clostridium perfringens, 3509, 48 h
[25] = tested on: Escherichia coli 1418; assay: Inhibition zone, agar plate; assay type: cell-based; conditions: 15λ, read-out: Inhibition Zone Diameter
[26] = tested on: Sal. typhimurium 3860; assay: Agar dilution, antagonist-free medium; conditions: Salmonella enterica, 20 h
[27] = tested on: Proteus mirabilis 3126; assay: Inhibition zone, agar plate; assay type: cell-based
[28] = tested on: Bordetella bronchiseptica (3771); assay: Protection and survival of infected mice; conditions: intraperitoneal
[29] = tested on: Escherichia coli 60 (9637); assay: Inhibition zone, agar plate; assay type: cell-based; conditions: 15λ, read-out: Inhibition Zone Diameter
[30] = tested on: K. pneumoniae K1+ 4354; assay: Agar dilution, trypticase soy agar; conditions: Klebsiella pneumoniae, 20 h
[31] = tested on: Veillonella alcalescens 1952; assay: Anaerobic agar dilution, Wilkens-Chalgren agar; assay type: cell-based; conditions: Veillonella parvula, 1952, 48 h
[32] = tested on: Pseudomonas aeruginosa 2824; assay: Inhibition zone, agar plate; assay type: cell-based; conditions: 15λ, read-out: Inhibition Zone Diameter
[33] = tested on: Pasteurella multocida (4678); assay: Protection and survival of infected mice; conditions: intraperitoneal
[34] = tested on: K. pneumoniae 4005; assay: Agar dilution, trypticase soy agar; conditions: Klebsiella pneumoniae, 4005, 20 h
[35] = tested on: Prot. vulgaris 2829; assay: Agar dilution, antagonist-free medium; conditions: Proteus vulgaris, 2829, 20 h
[36] = tested on: Pseudomonas aeruginosa 979; assay: Inhibition zone, agar plate; assay type: cell-based; conditions: 15λ, read-out: Inhibition Zone Diameter
[37] = tested on: Ps. aeruginosa 4279; assay: Agar dilution, antagonist-free medium; conditions: Pseudomonas aeruginosa, 4279, 20 h

C[C@H](CNC(=O)[C@H]1N=C(c2cccc(O)c2O)O[C@@H]1C)C(=O)N[C@@H]1CCCN(O)C1=O [L-654,040, 2-(2,3-dihydroxyphenyl)-4,5-dihydro-N-[3-[(1-hydroxy-2-oxo-3(R)-piperidinyl)-amino]-2(R)-methyl-3-oxopropyl]-5R-methyl-4S-oxazolecarboxamide]
MIC [1]: 64 µg/mL (≈ 147 µM)
sensitivity of strain ([2]; Staphylococcus aureus 2865): sensitive
MIC ([2]; Staphylococcus aureus, 2865, 20 h): 32 µg/mL (≈ 73.7 µM)
MIC [3]: 64 µg/mL (≈ 147 µM)
efficacy of combined therapy versus erythromycin alone [4]: slightly more effective than erythromycin alone but not to a degree considered to be synergistic
MIC [5]: > 128 µg/mL
MIC [6]: 128 µg/mL (≈ 295 µM)
MIC [7]: > 128 µg/mL
MIC [8]: 128 µg/mL (≈ 295 µM)
MIC [9]: 128 µg/mL (≈ 295 µM)
zone of inhibition at 500 µg/mL ([10]; Proteus vulgaris, 1012, read-out: Inhibition Zone Diameter): 24 mm
zone of inhibition at 2000 µg/mL ([10]; Proteus vulgaris, 1012, 2 mg/ml in distilled H2O, 15λ, read-out: Inhibition Zone Diameter): 34 mm
MIC [11]: > 256 µg/mL
MIC [12]: 128 µg/mL (≈ 295 µM)
zone of inhibition at 500 µg/mL ([13]; 0.5 mg/ml in distilled H2O): 0 mm
zone of inhibition at 2000 µg/mL ([13]; 2 mg/ml in distilled H2O): 18 mm
MIC [14]: > 128 µg/mL
MIC [15]: 128 µg/mL (≈ 295 µM)
MIC [16]: > 128 µg/mL
MIC [17]: 128 µg/mL (≈ 295 µM)
MIC [18]: > 128 µg/mL
relative activity of parent and acetyl derivative ([19]; E. coli permeability mutant): equal activity
sensitivity of strain ([19]; E. coli permeability mutant): sensitive
MIC ([19]; Escherichia coli, DC24353, 20 h): 32 µg/mL (≈ 73.7 µM)
zone of inhibition at 2000 µg/mL ([20]; 2 mg/ml in distilled H2O, 15λ): 33 mm
zone of inhibition at 500 µg/mL [20]: 28 mm
MIC [21]: 64 µg/mL (≈ 147 µM)
MIC [22]: > 128 µg/mL
MIC [23]: 128 µg/mL (≈ 295 µM)
MIC [24]: 64 µg/mL (≈ 147 µM)
zone of inhibition at 500 µg/mL ([25]; 0.5 mg/ml in distilled H2O): 0 mm
zone of inhibition at 2000 µg/mL ([25]; 2 mg/ml in distilled H2O): 13 mm
MIC [26]: > 256 µg/mL
zone of inhibition at 500 µg/mL ([27]; Proteus mirabilis, 3126, read-out: Inhibition Zone Diameter): 24 mm
zone of inhibition at 2000 µg/mL ([27]; Proteus mirabilis, 3126, 2 mg/ml in distilled H2O, 15λ, read-out: Inhibition Zone Diameter): 25 mm
protection against infection [28]: did not protect
survival time ([28]; 160 mg/kg x 2, significant only in Pasteurella-infected animals): prolongation of survival time was observed; also recorded: did prolong the survival time
zone of inhibition at 500 µg/mL ([29]; 0.5 mg/ml in distilled H2O): 0 mm
zone of inhibition at 2000 µg/mL ([29]; 2 mg/ml in distilled H2O): 0 mm
MIC [30]: > 128 µg/mL
MIC [31]: > 128 µg/mL
zone of inhibition at 500 µg/mL ([32]; 0.5 mg/ml in distilled H2O): 0 mm
zone of inhibition at 2000 µg/mL ([32]; 2 mg/ml in distilled H2O): 0 mm
protection against infection [33]: did not protect
statistical significance of prolonged survival ([33]; two Pasteurella tests): statistically significant at one level in two Pasteurella tests
survival time ([33]; 160 mg/kg x 2): prolongation of survival time was observed; also recorded: did prolong the survival time; also recorded: increases survival time
MIC [34]: > 128 µg/mL
MIC [35]: > 256 µg/mL
zone of inhibition at 500 µg/mL ([36]; 0.5 mg/ml in distilled H2O): 0 mm
zone of inhibition at 2000 µg/mL ([36]; 2 mg/ml in distilled H2O): 0 mm
MIC [37]: > 256 µg/mL
